System: 266295-075-R-J1-PDC spheroid viability
Assay: Anticancer human tumor 266295-075-R-J1-PDC patient-derived head and neck squamous carcinoma cell line growth inhibition [POLQ]
Details: spheroids with HUVEC and MSC; for IC50: curve of first compound; for viability, T/C: stronger effect = lower value; active means viability on the fitted dose curve at most 10% of control; inactive means the rest
Method in brief: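 Complex spheroid viability model combining PDC tumour cells with endothelial (HUVEC) and MSC stromal cells. Novobiocin, ART-558 or RP6685 were tested singly and in combination with standard and investigational anticancer drugs. Each was titrated in half-log steps from near clinical Cmax, or from 10 microM where Cmax was unknown.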

[1] = second compound 0.0316 µM, first compound 0.0316 µM
[2] = second compound 0.0316 µM, first compound 0.1 µM
[3] = second compound 0.0316 µM, first compound 0.316 µM
[4] = second compound 0.0316 µM, first compound 1 µM
[5] = second compound 0.0316 µM, first compound 3.16 µM
[6] = second compound 0.0316 µM, first compound 10 µM
[7] = second compound 0.1 µM, first compound 0.0316 µM
[8] = second compound 0.1 µM, first compound 0.1 µM
[9] = second compound 0.1 µM, first compound 0.316 µM
[10] = second compound 0.1 µM, first compound 1 µM
[11] = second compound 0.1 µM, first compound 3.16 µM
[12] = second compound 0.1 µM, first compound 10 µM
[13] = second compound 0.316 µM, first compound 0.0316 µM
[14] = second compound 0.316 µM, first compound 0.1 µM
[15] = second compound 0.316 µM, first compound 0.316 µM
[16] = second compound 0.316 µM, first compound 1 µM
[17] = second compound 0.316 µM, first compound 3.16 µM
[18] = second compound 0.316 µM, first compound 10 µM
[19] = second compound 1 µM, first compound 0.0316 µM
[20] = second compound 1 µM, first compound 0.1 µM
[21] = second compound 1 µM, first compound 0.316 µM
[22] = second compound 1 µM, first compound 1 µM
[23] = second compound 1 µM, first compound 3.16 µM
[24] = second compound 1 µM, first compound 10 µM
[25] = second compound 3.16 µM, first compound 0.0316 µM
[26] = second compound 3.16 µM, first compound 0.1 µM
[27] = second compound 3.16 µM, first compound 0.316 µM
[28] = second compound 3.16 µM, first compound 1 µM
[29] = second compound 3.16 µM, first compound 3.16 µM
[30] = second compound 3.16 µM, first compound 10 µM
[31] = second compound 10 µM, first compound 0.0316 µM
[32] = second compound 10 µM, first compound 0.1 µM
[33] = second compound 10 µM, first compound 0.316 µM
[34] = second compound 10 µM, first compound 1 µM
[35] = second compound 10 µM, first compound 3.16 µM
[36] = second compound 10 µM, first compound 10 µM
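Further: spheroids exposed to compounds for seven days before readout.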

CC(=O)O[C@H]1C(=O)[C@@]2(C)[C@H]([C@H](OC(=O)c3ccccc3)[C@]3(O)C[C@H](OC(=O)[C@H](O)[C@@H](NC(=O)c4ccccc4)c4ccccc4)C(C)=C1C3(C)C)[C@]1(OC(C)=O)CO[C@@H]1C[C@@H]2O + Nc1ccc(C#CCN(C(=O)Cc2ncc(C(F)(F)F)cc2C(F)(F)F)c2ccc(F)cc2)nn1
inactive: viability, T/C (second compound 0.0316 µM, first compound 0.00949 µM) 98.3% | viability, T/C (second compound 0.0316 µM, first compound 0.03 µM) 78.9% | viability, T/C (second compound 0.0316 µM, first compound 0.0949 µM) 73.9% | viability, T/C (second compound 0.0316 µM, first compound 0.3 µM) 76% | viability, T/C (second compound 0.0316 µM, first compound 0.949 µM) 78.8% | viability, T/C (second compound 0.0316 µM, first compound 3 µM) 78.3% | viability, T/C (second compound 0.1 µM, first compound 0.00949 µM) 75.6% | viability, T/C (second compound 0.1 µM, first compound 0.03 µM) 84% | viability, T/C (second compound 0.1 µM, first compound 0.0949 µM) 69.3% | viability, T/C (second compound 0.1 µM, first compound 0.3 µM) 69.3% | viability, T/C (second compound 0.1 µM, first compound 0.949 µM) 70.7% | viability, T/C (second compound 0.1 µM, first compound 3 µM) 71.3% | viability, T/C (second compound 0.316 µM, first compound 0.00949 µM) 94.1% | viability, T/C (second compound 0.316 µM, first compound 0.03 µM) 82.9% | viability, T/C (second compound 0.316 µM, first compound 0.0949 µM) 63.7% | viability, T/C (second compound 0.316 µM, first compound 0.3 µM) 55.3% | viability, T/C (second compound 0.316 µM, first compound 0.949 µM) 77.5% | viability, T/C (second compound 0.316 µM, first compound 3 µM) 61.4% | viability, T/C (second compound 1 µM, first compound 0.00949 µM) 81.3% | viability, T/C (second compound 1 µM, first compound 0.03 µM) 59.1% | viability, T/C (second compound 1 µM, first compound 0.0949 µM) 69% | viability, T/C (second compound 1 µM, first compound 0.3 µM) 70.7% | viability, T/C (second compound 1 µM, first compound 0.949 µM) 72.7% | viability, T/C (second compound 1 µM, first compound 3 µM) 66% | viability, T/C (second compound 3.16 µM, first compound 0.00949 µM) 71% | viability, T/C (second compound 3.16 µM, first compound 0.03 µM) 80.5% | viability, T/C (second compound 3.16 µM, first compound 0.0949 µM) 77.4% | viability, T/C (second compound 3.16 µM, first compound 0.3 µM) 62.8% | viability, T/C (second compound 3.16 µM, first compound 0.949 µM) 65% | viability, T/C (second compound 3.16 µM, first compound 3 µM) 67.4% | viability, T/C (second compound 10 µM, first compound 0.00949 µM) 72.4% | viability, T/C (second compound 10 µM, first compound 0.03 µM) 74.6% | viability, T/C (second compound 10 µM, first compound 0.0949 µM) 63% | viability, T/C (second compound 10 µM, first compound 0.3 µM) 71.1% | viability, T/C (second compound 10 µM, first compound 0.949 µM) 76.7% | viability, T/C (second compound 10 µM, first compound 3 µM) 77.2%
> 3 µM: IC50 (second compound 0.0316 µM) | IC50 (second compound 0.1 µM) | IC50 (second compound 0.316 µM) | IC50 (second compound 1 µM) | IC50 (second compound 3.16 µM) | IC50 (second compound 10 µM)

CCc1cc2c(N3CCc4c(cc(Cn5ccnc5)cc4-c4cn(C)nc4C(F)(F)F)C3=O)cc(C)nc2c(OC)n1 + Cc1cccc(N(C)C(=O)C2C(O)CCN2c2nc(C)cc(C(F)(F)F)c2C#N)c1
inactive: viability, T/C [1] 72.8% | viability, T/C [2] 89% | viability, T/C [3] 81.6% | viability, T/C [4] 111% | viability, T/C [5] 130% | viability, T/C [6] 120% | viability, T/C [7] 102% | viability, T/C [8] 90.4% | viability, T/C [9] 101% | viability, T/C [10] 110% | viability, T/C [11] 89.3% | viability, T/C [12] 114% | viability, T/C [13] 97.7% | viability, T/C [14] 105% | viability, T/C [15] 102% | viability, T/C [16] 122% | viability, T/C [17] 131% | viability, T/C [18] 123% | viability, T/C [19] 87.1% | viability, T/C [20] 88.4% | viability, T/C [21] 102% | viability, T/C [22] 98.5% | viability, T/C [23] 135% | viability, T/C [24] 121% | viability, T/C [25] 83.7% | viability, T/C [26] 102% | viability, T/C [27] 117% | viability, T/C [28] 109% | viability, T/C [29] 138% | viability, T/C [30] 137% | viability, T/C [31] 101% | viability, T/C [32] 93.2% | viability, T/C [33] 111% | viability, T/C [34] 127% | viability, T/C [35] 122% | viability, T/C [36] 145%
> 10 µM: IC50 (second compound 0.0316 µM) | IC50 (second compound 0.1 µM) | IC50 (second compound 0.316 µM) | IC50 (second compound 1 µM) | IC50 (second compound 3.16 µM) | IC50 (second compound 10 µM)

Nc1ccn(C2OC(CO)C(O)C2(F)F)c(=O)n1 (stereo unspecified) + Cc1cccc(N(C)C(=O)C2C(O)CCN2c2nc(C)cc(C(F)(F)F)c2C#N)c1
inactive: viability, T/C [1] 93.5% | viability, T/C [2] 81.9% | viability, T/C [3] 81.5% | viability, T/C [4] 68.3% | viability, T/C [5] 79.5% | viability, T/C [6] 69.4% | viability, T/C [7] 85.8% | viability, T/C [8] 93% | viability, T/C [9] 79.6% | viability, T/C [10] 76% | viability, T/C [11] 83.3% | viability, T/C [12] 73.7% | viability, T/C [13] 87.8% | viability, T/C [14] 78.5% | viability, T/C [15] 77% | viability, T/C [16] 94.9% | viability, T/C [17] 76.6% | viability, T/C [18] 72.4% | viability, T/C [19] 99.8% | viability, T/C [20] 82.8% | viability, T/C [21] 86% | viability, T/C [22] 84.7% | viability, T/C [23] 80.8% | viability, T/C [24] 80.2% | viability, T/C [25] 90.6% | viability, T/C [26] 96.9% | viability, T/C [27] 72.8% | viability, T/C [28] 78.1% | viability, T/C [29] 91% | viability, T/C [30] 67.1% | viability, T/C [31] 86.8% | viability, T/C [32] 88.4% | viability, T/C [33] 72% | viability, T/C [34] 75.1% | viability, T/C [35] 82.1% | viability, T/C [36] 68.2%
> 10 µM: IC50 (second compound 0.0316 µM) | IC50 (second compound 0.1 µM) | IC50 (second compound 0.316 µM) | IC50 (second compound 1 µM) | IC50 (second compound 3.16 µM) | IC50 (second compound 10 µM)

Reference: PubChem BioAssay AID1963853 (Molecular Pharmacology Branch, DTP, NCI, 2024)
